Values after ≈ are worked out from the molar mass of the structure shown.

Among the test systems are Listeria ivanovii; Escherichia coli ML-35p; Saccharomyces cerevisiae; Escherichia coli IS117#; Shigella dysenteriae; Escherichia coli IS37#; Escherichia coli IS218#.
Common to all, as to experiment: ≥ marks a high value that may be exact or a test limit, other limits are often not marked, values filed in µg/mL are converted to µM
Assay [1] has as its system Pseudomonas aeruginosa ATCC 27853.
Assay [2] deals with Candida parapsilosis ATCC 22019.
Assay [3] concerns Legionella pneumophila Paris.
The subject of assay [4] is Streptococcus pyogenes ATCC 19615.
The subject of assay [5] is Legionella pneumophila ATCC 33155.
For assay [6], the system named is Klebsiella pneumoniae ATCC 13883.
In assay [7] the test system is Leishmania infantum (promastigote).
Assay [8] concerns Staphylococcus aureus ATCC 25923.
The subject of assay [9] is Enterococcus faecalis ATCC 29212.
Assay [10] relates to Candida albicans ATCC 90028.
For assay [11], the system named is Staphylococcus aureus ATCC 43300.
The test system of assay [12] is Salmonella enterica subsp. enterica serovar Enteritidis.
The test system of assay [13] is Legionella longbeachae ATCC 33484.
Assay [14] concerns Staphylococcus aureus ST1065.
Assay [15] deals with Legionella feeleii ATCC 35072.
Assay [16] deals with Staphylococcus aureus ATCC BAA-44.
The test system of assay [17] is Escherichia coli ATCC 25922.
Assay [18] relates to Acinetobacter baumannii ATCC 19606.
Assay [19] has as its system Escherichia coli K12 MG1655.
Assay [20] relates to Staphylococcus aureus 68 HER 1049.
Assay [21] has as its system Candida albicans ATCC 2002.
For assay [22], the system named is Klebsiella pneumoniae IS59#.
Assay [23] deals with Pseudomonas aeruginosa CMCCB 1010.
In assay [24] the test system is Klebsiella pneumoniae ATCC 700603.
For assay [25], the system named is Enterobacter cloacae ATCC 13047.
The subject of assay [26] is Pseudomonas aeruginosa DM23155.
Assay [27] has as its system Klebsiella pneumoniae DM4299.
Assay [28] deals with Acinetobacter johnsonii NCDC 0072.
Assay [29] has as its system Escherichia coli MTCC 0723.
The subject of assay [30] is Bacillus cereus NCDC 0240.
Assay [31] concerns Listeria monocytogenes ATCC 19111.
The subject of assay [32] is Salmonella enterica subsp. enterica serovar Typhimurium ATCC 14028.
Assay [33] has as its system Pseudomonas aeruginosa NCDC 0105.
For assay [34], the system named is Staphylococcus aureus NCDC 0111.
The test system of assay [35] is Staphylococcus aureus ATCC 29213.
Assay [36] relates to Pseudomonas aeruginosa IS350#.
Assay [37] has as its system Staphylococcus aureus IS10#.

Broadly, the MIC is the lowest concentration that inhibits growth of the organism. As for `CC[C@H](C)[C@H](NC(=O)CNC(=O)[C@H](CCCCN)NC(=O)[C@H](CC(C)C)NC(=O)[C@@H](N)Cc1ccccc1)C(=O)N[C@H](C(=O)NCC(=O)N[C@@H](CCSC)C(=O)N[C@@H](CC(C)C)C(=O)NCC(=O)N[C@@H](CCCCN)C(=O)N[C@@H](CC(C)C)C(=O)N[C@@H](Cc1ccccc1)C(N)=O)C(C)C` [FLKGIVGMLGKLF], the minimal inhibitory concentration (MIC) in assay [1] turned out to be 6 µM (≈ 8.53 µg/mL); in assay [2], 25 µM (≈ 35.5 µg/mL); in assay [3], 3.12 µM (≈ 4.44 µg/mL); against Listeria ivanovii it was 3 µM (≈ 4.27 µg/mL); in assay [4] it was 1 µM (≈ 1.42 µg/mL); against Escherichia coli ML-35p it was 3 µM (≈ 4.27 µg/mL). The MIC in assay [5] came to 3.12 µM (≈ 4.44 µg/mL); in [6], 3 µM (≈ 4.27 µg/mL); in the assay on Saccharomyces cerevisiae, 3 µM (≈ 4.27 µg/mL); in [7], 10 µM (≈ 14.2 µg/mL); in [8], 3 µM (≈ 4.27 µg/mL); in [9] it was 6 µM (≈ 8.53 µg/mL). Moreover, the minimal inhibitory concentration (MIC) in assay [10] came to 6 µM (≈ 8.53 µg/mL); in assay [11], 3 µM (≈ 4.27 µg/mL); in [12], 6 µM (≈ 8.53 µg/mL); in assay [13], 3.12 µM (≈ 4.44 µg/mL); in [14], 3 µM (≈ 4.27 µg/mL); in assay [15], 3.12 µM (≈ 4.44 µg/mL). Also, the minimal inhibitory concentration (MIC) in assay [16], in assay [17] and in assay [18] was 3 µM (≈ 4.27 µg/mL) in each case.

Turning to `CC[C@H](C)[C@H](NC(=O)CNC(=O)[C@H](CC(C)C)NC(=O)[C@H](Cc1ccccc1)NC(=O)[C@H](CC(C)C)NC(=O)[C@H](CCCCN)NC(=O)[C@H](Cc1c[nH]c2ccccc12)NC(=O)[C@@H](N)CCCCN)C(=O)N[C@@H](CC(C)C)C(=O)N[C@@H](C)C(=O)N[C@H](C(=O)N[C@@H](CC(C)C)C(=O)N[C@@H](CCCCN)C(=O)N[C@H](C(=O)N[C@@H](CC(C)C)C(=O)O)C(C)C)C(C)C` [KWKLFLGILAVLKVL], the minimal inhibitory concentration (MIC) in assay [19] and in [20] was 18.4 µM (≈ 32 µg/mL) each time.

In the case of `C[C@@H](O)[C@@H]1NC(=O)CNC(=O)[C@H](CCCCN)NC(=O)[C@H](Cc2ccccc2)NC(=O)[C@@H](NC(=O)[C@H](Cc2ccccc2)NC(=O)[C@@H](N)CCCN=C(N)N)CSSC[C@@H](C(=O)NCC(=O)O)NC(=O)[C@@H]2CCCN2C1=O` [RFCFKGTPCG], the minimum inhibitory concentration (MIC) in the assay with Escherichia coli IS117# is no less than 44.8 µM; in [2] it was 17.9 µM (≈ 20 µg/mL); in [21], 17.9 µM (≈ 20 µg/mL); in [22], no less than 44.8 µM; with Shigella dysenteriae it was 17.9 µM (≈ 20 µg/mL); against Escherichia coli IS37#, no less than 44.8 µM. Also, the MIC in assay [23] was no less than 44.8 µM; in assay [24] it was 17.9 µM (≈ 20 µg/mL); in [25] it was 8.97 µM (≈ 9.98 µg/mL); in assay [8], 4.48 µM (≈ 4.99 µg/mL); in assay [9] it was 17.9 µM (≈ 20 µg/mL); in assay [10] it was 17.9 µM (≈ 20 µg/mL). The MIC in assay [17] turned out to be 8.97 µM (≈ 9.98 µg/mL).

Turning to `CC(=O)N[C@@H](CCCN=C(N)N)C(=O)NCC(=O)N[C@@H](CCCN=C(N)N)C(=O)N[C@@H](CCCCN)C(=O)N[C@H](C(=O)N[C@H](C(=O)N[C@@H](CCCN=C(N)N)C(=O)N[C@@H](CCCN=C(N)N)C(=O)N[C@@H](CCCCN)C(=O)N[C@@H](CCCCN)C(=O)O)C(C)C)C(C)C` [RGRKVVRRKK], the MIC in assay [26], in [27] and in assay [17] was 6 µM (≈ 7.95 µg/mL) throughout.

For `CC[C@H](C)[C@H](NC(=O)[C@@H](N)CCCN=C(N)N)C(=O)N[C@@H](CCCN=C(N)N)C(=O)N[C@@H](Cc1ccccc1)C(=O)N1CCC[C@H]1C(=O)N[C@@H](Cc1c[nH]c2ccccc12)C(=O)N1CCC[C@H]1C(=O)N[C@@H](Cc1c[nH]c2ccccc12)C(=O)N[C@@H](CCCN=C(N)N)C(=O)N[C@@H](Cc1c[nH]c2ccccc12)C(=O)N1CCC[C@H]1C(=O)N[C@@H](Cc1c[nH]c2ccccc12)C(=O)N[C@@H](Cc1c[nH]c2ccccc12)C(=O)N1CCC[C@H]1C(=O)N[C@@H](CCCN=C(N)N)C(=O)N[C@@H](Cc1ccccc1)C(=O)N[C@@H](CCCN=C(N)N)C(=O)NCC(=O)O` [RIRFPWPWRWPWWPRFRG], the MIC is no less than 50 µM in assay [28]; 25 µM (≈ 64.6 µg/mL) in assay [1]; 6 µM (≈ 15.5 µg/mL) in [29]; 1.5 µM (≈ 3.87 µg/mL) in [30]; 6 µM (≈ 15.5 µg/mL) in assay [31]; 50 µM (≈ 129 µg/mL) in assay [32]. For the same molecule, the minimal inhibitory concentration (MIC) was no less than 50 µM in assay [33], 12.5 µM (≈ 32.3 µg/mL) in assay [34] and 6 µM (≈ 15.5 µg/mL) in assay [35].

On to `CC[C@H](C)[C@H](NC(=O)[C@@H](N)C(C)C)C(=O)N1CCC[C@H]1C(=O)N[C@@H](Cc1ccccc1)C(=O)N[C@H](C(=O)N[C@@H](C)C(=O)N[C@@H](CO)C(=O)N[C@H](C(=O)N[C@@H](C)C(=O)N[C@@H](C)C(=O)N[C@@H](CCC(=O)O)C(=O)N[C@@H](CCSC)C(=O)N[C@@H](CCSC)C(=O)N[C@@H](CCC(N)=O)C(=O)N[C@@H](Cc1cnc[nH]1)C(=O)N[C@H](C(=O)N[C@@H](Cc1ccc(O)cc1)C(=O)N[C@H]1CSSC[C@@H](C(=O)O)NC(=O)[C@H](CCCN=C(N)N)NC(=O)[C@H](CCCCN)NC(=O)[C@H](CO)NC(=O)[C@H](C)NC(=O)[C@H](C)NC1=O)C(C)C)C(C)C)C(C)C` [VIPFVASVAAEMMQHVYCAASKRC], for which the minimum inhibitory concentration (MIC) against Escherichia coli IS117# worked out at 7.66 µM (≈ 20 µg/mL); in [1], 7.66 µM (≈ 20 µg/mL); in assay [2], 7.66 µM (≈ 20 µg/mL); in assay [21], 1.91 µM (≈ 5 µg/mL); against Shigella dysenteriae it was 3.83 µM (≈ 9.99 µg/mL); in the assay on Escherichia coli IS37# it was 19.1 µM (≈ 50 µg/mL). The minimal inhibitory concentration (MIC) amounted to 3.83 µM (≈ 9.99 µg/mL) in [23]; 3.83 µM (≈ 9.99 µg/mL) in [24]; 3.83 µM (≈ 9.99 µg/mL) in [25]; 19.1 µM (≈ 50 µg/mL) in the assay with Escherichia coli IS218#; 19.1 µM (≈ 50 µg/mL) in [36]; 3.83 µM (≈ 9.99 µg/mL) in [8]. In addition, the minimum inhibitory concentration (MIC) in assay [9] stood at 1.91 µM (≈ 5 µg/mL); in [10], 3.83 µM (≈ 9.99 µg/mL); in assay [37], 19.1 µM (≈ 50 µg/mL); in [17], 1.91 µM (≈ 5 µg/mL).

For the origin of these results see DBAASP.
